Assay [1] has as its system opossum internal anal sphincter muscle. As to conditions: cited from earlier work.
A further assay deals with live male rabbits. The conditions noted are these: cited from earlier work.
In assay [2] the test system is corpus cavernosum of the diabetic man. The conditions noted are these: ex vivo; cited from earlier work.
The next assay relates to guinea pigs. The conditions noted are these: nebulizer treatment, allergic asthma model; cited from earlier work.
Assay [3] concerns animal model of multiple sclerosis (experimental autoimmune encephalomyelitis). As to conditions: cited from earlier work.
The next assay has as its system live female rabbits. The conditions noted are these: cited from earlier work.
The test system of assay [4] is rabbit and human penile corpus cavernosum. As to conditions: rabbit and human tissue; cited from earlier work.
Another assay concerns the target T1, Arginase (ARG1 enzyme) (Homo sapiens, UniProt P05089).
T1 construct: made in house; host or cells: Escherichia coli
T1 sequence (P05089 1-322): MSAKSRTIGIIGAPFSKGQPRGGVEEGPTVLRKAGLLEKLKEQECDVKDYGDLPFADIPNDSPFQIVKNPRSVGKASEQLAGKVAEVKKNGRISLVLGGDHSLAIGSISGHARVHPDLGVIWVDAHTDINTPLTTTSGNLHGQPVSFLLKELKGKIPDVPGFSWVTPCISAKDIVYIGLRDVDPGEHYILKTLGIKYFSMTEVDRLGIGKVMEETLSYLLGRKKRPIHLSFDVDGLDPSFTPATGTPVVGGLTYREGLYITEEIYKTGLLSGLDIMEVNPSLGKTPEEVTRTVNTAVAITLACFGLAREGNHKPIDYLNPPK
Kind of assay: Arginase Thioornithine Generating Assay (TOGA). Format: biochemical. As to conditions: 1.88 nM arginase, thioarginine substrate, fluorescence readout.

This is an account of results in US12215116B2, “Arginase inhibitors and methods of use” (Merck Sharp & Dohme LLC, priority 2018, dated 2025).

Take `N[C@@H](CCCCB(O)O)C(=O)O` [ABH, (S)-2-amino-6-boronohexanoic acid]: the “relaxation of internal anal sphincter muscle” value in assay [1] is listed as “relax this muscle”. For the same compound, the erectile response result in the assay on live male rabbits is recorded as “enhances the erectile response”. Also, the nitric oxide biosynthesis entry in assay [2] is recorded as “restores nitric oxide biosynthesis”. Also, the airway hyperresponsiveness entry in the assay with guinea pigs was “prevents airway hyperresponsiveness”. Further, in assay [3], the disease score entry was “improves the disease score”. In addition, the “engorgement response in the genitalia” value in the assay with live female rabbits was “enhances the engorgement response”. Also, the “nitric oxide-dependent relaxation of penile corpus cavernosum” value in assay [4] was “enhances the nitric oxide-dependent relaxation of this tissue”.
One may read the IC50 as the midpoint of a concentration-inhibition curve. A high value points to weaker potency in that assay. Consider `O=C(O)[C@H]1NC[C@H](N2CCCC2)[C@H]1CCCB(O)O` [Example 25, (3′R,4′S,5′S)-4′-(3-boronopropyl)-[1,3′-bipyrrolidine]-5′-carboxylic acid], for which, on Arginase (ARG1 enzyme), the IC50 was 522 nM.
